The values below come from patent US12679827B2, “Pyrimidine compounds and their pharmaceutical uses” (National Health Research Institutes, priority 2020, dated 2026).

The conditions of assay [1]: background statement, WO 2014/190207A1; cited from earlier work.
In assay [2] the target is T1, human Aurora A (amino acids 123-401) (Homo sapiens, UniProt O14965).
T1 construct: human Aurora A (amino acids 123-401) was expressed in Sf9 insect cells; GST; made in house; host or cells: Sf9 insect cells
T1 sequence (O14965 123-401): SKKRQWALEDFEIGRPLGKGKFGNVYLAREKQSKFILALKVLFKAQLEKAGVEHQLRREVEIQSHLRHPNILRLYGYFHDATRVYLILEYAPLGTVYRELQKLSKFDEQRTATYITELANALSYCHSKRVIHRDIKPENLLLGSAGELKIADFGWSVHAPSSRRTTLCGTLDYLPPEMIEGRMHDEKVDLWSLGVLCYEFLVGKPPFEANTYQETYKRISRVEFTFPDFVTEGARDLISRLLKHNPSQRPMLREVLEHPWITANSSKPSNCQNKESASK
The assay is described as follows: Kinase-Glo Luminescent Kinase assay, in vitro inhibition of Aurora A kinase activity. The following applies: recombinant GST-tagged Aurora A, 5.0 μM ATP, 37° C., 120 minutes. The class given is biochemical. The procedure: Recombinant glutathione S-transferase (GST)-tagged N-terminal truncated human Aurora A (amino acids 123-401) was expressed in Sf9 insect cells and then purified by glutathione affinity chromatography to afford recombinant Aurora A. Recombinant Aurora A (150 ng) was reacted with each test compound (100 nM) in 50 μL of 50 mM Tris-HCl pH 7.4, 10 mM NaCl, 10 mM MgCl2, 0.01% bovine serum albumin, 5.0 μM ATP, 1 mM dithiothreitol, 15 μM tetra(-LRRASLG) peptide at 37° C. for 120 minutes. Then, to the reaction was added 50 μL of Kinase-Glo Plus Reagent. The resulting mixture was incubated at 25° C. for 20 minutes. A 70 μL aliquot of the mixture was transferred to a black microliter plate. Luminescence was measured using a Wallac Vector 1420 multilabel counter (PerkinElmer, USA).
Background: Kinase-Glo measures the ATP left after a reaction by luminescence.

The next assay has as its system NCI-H446. Kind of assay: Small-cell-lung cancer cell proliferation inhibition assay (PrestoBlue), NCI-H446. The class given is cell-based. As to conditions: Homo sapiens, cMYC amplified SCLC cells, 72 hours. The protocol: (§1) Small cell lung cancer cells NCI-H82 (ATCC HTB-175, cMYC amplified), NCI-H446 (ATCC® HTB-171, cMYC amplified), and NCI-H69 (ATCC® HTB-119, MYCN amplified) were seeded at the density of 5000-10000 cells per well in 96-well plates. After 24 hours, the cancer cells were treated with each compound at various concentrations (0-10 μM) and then incubated for another 72 hours. IC50 values were computed based on duplicated 8-point titration.

The subject of the next assay is NCI-H69. Kind of assay: Small-cell-lung cancer cell proliferation inhibition assay (PrestoBlue), NCI-H69. The class given is cell-based. The following applies: Homo sapiens, MYCN amplified SCLC cells, 72 hours. The procedure: as §1
Another assay concerns NCI-H82. Kind of assay: Small-cell-lung cancer cell proliferation inhibition assay (PrestoBlue), NCI-H82. The class given is cell-based. As to conditions: Homo sapiens, cMYC amplified SCLC cells, 72 hours. The protocol: as §1
A further assay has as its system cleaved PARP-1 (cPARP-1). The assay is described as follows: In vivo cell apoptosis induction (cleaved PARP-1), NCI-H446 xenograft mouse model, Western blot. Details: species or system mice. As to conditions: one oral dosage of 100 mg/kg; 24 hours after administration; FIG. 3. The protocol:
(§2) The efficacy of a compound of Formula (I), i.e., compound 71, in reducing the cMYC protein level and in inducing cell apoptosis was assessed using an NCI-H446 xenograft tumorigenicity mouse model as follows.
(§3) Male athymic nu/nu nude mice (BioLASCO. Taiwan) at 6-week age were housed in sterile cages maintained under 12-h light/dark cycles with controlled temperature and humidity. Mice were inoculated s.c. with 1×10^6 NCI-H446 cells resuspended in saline mixed with 50% Metrigel Matrix (Corning, USA). The sizes of the xenografted tumors were measured by a digital caliper (GMC-190; Goldsun Electronics Co.) and calculated using the algorithm: tumor volume (mm^3)=length×(width)^2/2. Body weight and tumor size were measured at least twice a week. When the xenografted NCI-H446 tumor reached a size ≥500 mm^3, the xenografted tumor-bearing nude mice were oral (PO) administered with compound 71 at one dosage of 100 mg/kg. Tumors were harvested at 2 hours, 4 hours, 8 hours, and 24 hours after the administration. Tissue lysates of the tumors were subjected for Western blot analysis. The primary antibodies used were cMYC (Cell Signaling, Cat No. 5605S), PARP-1 (Abcam, ab32378), and β-ACTIN (Sigma-Aldrich, A1978).
For orientation: A western blot detects proteins with antibodies after separation by electrophoresis.

Assay [3] concerns NCI-H446 xenografted tumor. The assay is described as follows: Inhibition of xenografted tumor growth, NCI-H446-xenografted tumorigenicity mouse model. The class given is in vivo, mice. The following applies: 100 mg/kg orally; for tumor regression: NCI-H446 xenograft. The procedure: The efficacies of two compounds of Formula (I), i.e., compound 71 and compound 122, in inhibiting tumor growth were determined using a NCI-H446-xenografted tumorigenicity mouse model as below.
Male athymic nu/nu nude mice (BioLASCO, Taiwan) at age 6 wk were housed in sterile cages maintained under 12-h light/dark cycles with controlled temperature and humidity. The mice were inoculated s.c. with 1×10^6 NCI-H446 cells (ATCC® HTB-171) resuspended in saline mixed with 50% Metrigel Matrix (Corning, USA). The sizes of the xenografted tumors were measured by a digital caliper (GMC-190; Goldsun Electronics Co.) and calculated using the algorithm: tumor volume (mm^3)=length×(width)^2/2. Body weight and tumor size were measured at least twice a week.

In a further assay the test system is cMYC. Kind of assay: In vivo cMYC protein level reduction, NCI-H446 xenograft mouse model, Western blot. Further details: species or system mice. As to conditions: one oral dosage of 100 mg/kg; tumors harvested 2-24 hours; FIG. 3. The procedure: as §2, §3

In the case of `O=C(Nc1ccc(Nc2nccc(Nc3cc(C4CCCC4)[nH]n3)n2)cc1)Nc1cccc(C(F)(F)F)c1` [CD532], in assay [1], the in vivo efficacy result is “weak”.

On to `Cc1cc(Nc2cc(N3CCN(CC(F)(F)F)CC3)nc(N[C@H]3CCN(C(=O)c4ccc(Cl)cc4F)C3)n2)n[nH]1` [Compound 14], for which the half-inhibitory concentration (IC50) in assay [2] is under 100 nM; with NCI-H446, under 1000 nM; in the assay with NCI-H69 it was under 1000 nM; in the assay with NCI-H82 it was under 1000 nM.

On to `Cc1cc(Nc2cc(N3C[C@@H](C)N(C)[C@@H](C)C3)nc(N[C@H]3CCN(C(=O)c4ccc(Cl)cc4F)C3)n2)n[nH]1` [Compound 15], for which the IC50 was under 100 nM in assay [2], under 1000 nM in the assay with NCI-H446, under 1000 nM in the assay on NCI-H69 and under 1000 nM in the assay with NCI-H82.

Regarding `Cc1cc(Nc2cc(N3CCN(C4COC4)CC3)nc(N[C@H]3CCN(C(=O)c4ccc(Cl)cc4F)C3)n2)n[nH]1` [Compound 16], the IC50 in assay [2] was under 100 nM; with NCI-H446, under 1000 nM; with NCI-H69, under 1000 nM; in the assay with NCI-H82 it was under 1000 nM.

Take `Cc1cc(Nc2cc(N3CCC(N(C)C)CC3)nc(N[C@H]3CCN(C(=O)c4cccc(Cl)c4F)C3)n2)n[nH]1` [Compound 21]: the IC50 in assay [2] was under 100 nM; in the assay on NCI-H446, under 1000 nM; in the assay with NCI-H69, under 1000 nM; with NCI-H82, under 1000 nM.

For `CCC(=O)n1nc(C)cc1Nc1cc(N2CCN(CC)CC2)nc(N[C@H]2CCN(C(=O)c3ccc(Cl)cc3F)C2)n1` [Compound 71], in the assay on cleaved PARP-1 (cPARP-1), the “xenografted tumors with increased amounts of cleaved PARP-1 (cell apoptosis)” value was “more than 80%”. Further, the “tumor size after treatment” value in assay [3] (5-on-2-off, from about 250 mm^3, in 10 days, FIG. 2A) is given as “smaller than 50 mm^3”; in assay [3] (5-on-2-off, from larger than 750 mm^3, in 14 days, FIG. 2C), “smaller than 50 mm^3”. In addition, the tumor regression entry in assay [3] is listed as “more than 80%”. In addition, the IC50 in the assay with NCI-H446, with NCI-H69 and in the assay with NCI-H82 was under 1000 nM each time. For the same compound, the “xenografted tumors with reduced cMYC protein level” value in the assay on cMYC is reported as “more than 50%”.

As for `Cc1cc(Nc2cc(N3CCN(C)CC3)nc(NC3CCN(C(=O)c4cccc(Cl)c4F)CC3)n2)n[nH]1` [Compound 90], the IC50 is under 100 nM in assay [2], under 1000 nM in the assay with NCI-H446, under 1000 nM in the assay with NCI-H69 and under 1000 nM in the assay on NCI-H82.

`Cc1cc(Nc2cc(N3CCC(N(C)C)CC3)nc(NC3CCN(C(=O)c4cccc(Cl)c4F)CC3)n2)n[nH]1` [Compound 92]: the concentration for half-maximal inhibition (IC50) in assay [2] was under 100 nM; in the assay with NCI-H446 it was under 1000 nM; in the assay on NCI-H69, under 1000 nM; with NCI-H82, under 1000 nM.

In the case of `CC(=O)N1CCN(c2cc(Nc3cc(C)[nH]n3)nc(NC3CCN(C(=O)c4cccc(Cl)c4F)CC3)n2)CC1` [Compound 93], the IC50 is under 100 nM in assay [2], under 1000 nM in the assay on NCI-H446, under 1000 nM in the assay on NCI-H69 and under 1000 nM in the assay with NCI-H82.

In the case of `Cc1cc(Nc2cc(N3CC[C@@H](N(C)C)C3)nc(NC3CCN(C(=O)c4cccc(Cl)c4F)CC3)n2)n[nH]1` [Compound 94], the IC50 is under 100 nM in assay [2], under 1000 nM in the assay with NCI-H446, under 1000 nM with NCI-H69 and under 1000 nM with NCI-H82.

Turning to `Cc1cc(Nc2cc(N3CC[C@H](N(C)C)C3)nc(NC3CCN(C(=O)c4cccc(Cl)c4F)CC3)n2)n[nH]1` [Compound 96], the IC50 is under 100 nM in assay [2], under 1000 nM in the assay on NCI-H446, under 1000 nM in the assay with NCI-H69 and under 1000 nM with NCI-H82.

Turning to `COC[C@H]1CCCN1c1cc(Nc2cc(C)[nH]n2)nc(NC2CCN(C(=O)c3cccc(Cl)c3F)CC2)n1` [Compound 97], the IC50 is under 100 nM in assay [2], under 1000 nM in the assay with NCI-H446, under 1000 nM in the assay with NCI-H69 and under 1000 nM in the assay with NCI-H82.

Turning to `Cc1cc(Nc2cc(N3C[C@@H](C)N(C)[C@@H](C)C3)nc(NC3CCN(C(=O)c4cccc(Cl)c4F)CC3)n2)n[nH]1` [Compound 100], the IC50 in assay [2] was under 100 nM; with NCI-H446, under 1000 nM; in the assay on NCI-H69, under 1000 nM; in the assay on NCI-H82, under 1000 nM.

As to `Cc1cc(Nc2cc(N3C[C@@H](C)N[C@@H](C)C3)nc(NC3CCN(C(=O)c4cccc(Cl)c4F)CC3)n2)n[nH]1` [Compound 102], the IC50 is under 100 nM in assay [2], under 1000 nM in the assay on NCI-H446, under 1000 nM in the assay with NCI-H69 and under 1000 nM with NCI-H82.

As for `Cc1cc(Nc2cc(N3CCN(C4COC4)CC3)nc(NC3CCN(C(=O)c4cccc(Cl)c4F)CC3)n2)n[nH]1` [Compound 103], the IC50 is under 100 nM in assay [2], under 1000 nM with NCI-H446, under 1000 nM with NCI-H69 and under 1000 nM in the assay with NCI-H82.

As to `Cc1cc(Nc2cc(N3CCN(CC(F)(F)F)CC3)nc(NC3CCN(C(=O)c4cccc(Cl)c4F)CC3)n2)n[nH]1` [Compound 106], the IC50 in assay [2] was under 100 nM; with NCI-H446, under 1000 nM; in the assay on NCI-H69, under 1000 nM; in the assay with NCI-H82 it was under 1000 nM.

Consider `Cc1cc(Nc2cc(N3C[C@H](C)NC[C@H]3C)nc(NC3CCN(C(=O)c4cccc(Cl)c4F)CC3)n2)n[nH]1` [Compound 107], for which the IC50 in assay [2] was under 100 nM; with NCI-H446 it was under 1000 nM; with NCI-H69, under 1000 nM; in the assay on NCI-H82 it was under 1000 nM.

Take `CCC(=O)n1nc(C)cc1Nc1cc(N2CCN(CC)CC2)nc(NC2CCN(C(=O)c3cccc(Cl)c3F)CC2)n1` [Compound 122]: the IC50 in assay [2] is under 100 nM; in the assay on NCI-H446, under 1000 nM; in the assay on NCI-H69, under 1000 nM; in the assay with NCI-H82, under 1000 nM. The tumor regression result in assay [3] is recorded as “more than 80%”. Besides, in assay [3] (from about 250 mm^3, FIG. 2B), the “tumor size after treatment” value is listed as “smaller than 50 mm^3”.

Regarding `CCC(=O)n1nc(Nc2cc(N3CCN(CC)CC3)nc(NC3CCN(C(=O)c4cccc(Cl)c4F)CC3)n2)cc1C` [Compound 123], the IC50 in assay [2] is under 100 nM; in the assay with NCI-H446 it was under 1000 nM; in the assay with NCI-H69 it was under 1000 nM; with NCI-H82, under 1000 nM.

`CCOC(=O)n1nc(C)cc1Nc1cc(N2CCN(CC)CC2)nc(NC2CCN(C(=O)c3cccc(Cl)c3F)CC2)n1` [Compound 127]: the IC50 in the assay with NCI-H446, in the assay with NCI-H69 and with NCI-H82 was under 1000 nM each time.

With `COc1cc(Nc2ncc3c(n2)-c2ccc(Cl)cc2C(c2c(F)cccc2OC)=NC3)ccc1C(=O)O` [MCLN8237, reference compound], the “tumor size 6 weeks after the treatment stopped” value in assay [3] (FIG. 2A) is on record as over 700 mm^3.

Broadly, the IC50 is the concentration that inhibits the measured activity by half.
